Assay results reported in PubChem BioAssay (NCI).
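These data come from cells grown in 96-well plates and exposed to compound for 48 hours at five concentrations. GI50 marks 50% less growth. TGI marks complete inhibition of growth.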

What was measured:
Test in all cases: NCI tumour cell line growth inhibition, 48 h
KM12 colon = test system: KM12 colon
SF-295 CNS = test system: SF-295 CNS
786-0 renal = test system: 786-0 renal
HOP-62 NSCLC = test system: HOP-62 NSCLC
SK-MEL-5 melanoma = test system: SK-MEL-5 melanoma
MOLT-4 leukemia = test system: MOLT-4 leukemia
CCRF-CEM leukemia = test system: CCRF-CEM leukemia
NCI-H522 lung = test system: NCI-H522 lung
MDA-MB-435 = test system: MDA-MB-435
TK-10 renal = test system: TK-10 renal
SK-MEL-2 melanoma = test system: SK-MEL-2 melanoma
T-47D breast = test system: T-47D breast
HCC-2998 colon = test system: HCC-2998 colon
ACHN renal = test system: ACHN renal
OVCAR-4 ovarian = test system: OVCAR-4 ovarian
UO-31 renal = test system: UO-31 renal
OVCAR-5 ovarian = test system: OVCAR-5 ovarian
HCT-15 colon = test system: HCT-15 colon
M14 melanoma = test system: M14 melanoma
MDA-MB-468 breast = test system: MDA-MB-468 breast
COLO 205 colon = test system: COLO 205 colon
UACC-62 melanoma = test system: UACC-62 melanoma
UACC-257 melanoma = test system: UACC-257 melanoma
EKVX NSCLC = test system: EKVX NSCLC
RPMI-8226 leukemia = test system: RPMI-8226 leukemia
HL-60(TB) leukemia = test system: HL-60(TB) leukemia
CAKI-1 renal = test system: CAKI-1 renal
DU-145 prostate = test system: DU-145 prostate
U251 CNS = test system: U251 CNS
HOP-92 NSCLC = test system: HOP-92 NSCLC
SK-OV-3 ovarian = test system: SK-OV-3 ovarian
HS 578T breast = test system: HS 578T breast
SNB-19 CNS = test system: SNB-19 CNS
SF-539 CNS = test system: SF-539 CNS
SK-MEL-28 melanoma = test system: SK-MEL-28 melanoma
OVCAR-8 ovarian = test system: OVCAR-8 ovarian
SN12C renal = test system: SN12C renal
A549 NSCLC = test system: A549 NSCLC
HCT-116 colon = test system: HCT-116 colon
PC-3 prostate = test system: PC-3 prostate
SW-620 colon = test system: SW-620 colon
BT-549 breast = test system: BT-549 breast
LOX IMVI melanoma = test system: LOX IMVI melanoma
IGROV1 ovarian = test system: IGROV1 ovarian
NCI-H23 lung = test system: NCI-H23 lung
MALME-3M melanoma = test system: MALME-3M melanoma
MDA-MB-231 breast = test system: MDA-MB-231 breast
MCF7 breast = test system: MCF7 breast
NCI-H226 lung = test system: NCI-H226 lung
SF-268 CNS = test system: SF-268 CNS
OVCAR-3 ovarian = test system: OVCAR-3 ovarian
A498 renal = test system: A498 renal
NCI/ADR-RES ovarian = test system: NCI/ADR-RES ovarian
RXF 393 renal = test system: RXF 393 renal
SNB-75 CNS = test system: SNB-75 CNS

Structure (SMILES): COc1ccc(-c2nc3cc(C)ccc3n2CC(=O)N=Nc2c(O)[nH]c3ccc(OC)cc23)cc1
- GI50 (KM12 colon): 1.85 µM
- TGI (KM12 colon): 3.72 µM
- GI50 (SF-295 CNS): 3.59 µM
- TGI (SF-295 CNS): 13.7 µM
- GI50 (786-0 renal): 3.37 µM
- TGI (786-0 renal): 11.7 µM
- GI50 (HOP-62 NSCLC): 2.52 µM
- TGI (HOP-62 NSCLC): 6.96 µM
- GI50 (SK-MEL-5 melanoma): 1.64 µM
- TGI (SK-MEL-5 melanoma): 3.16 µM
- GI50 (MOLT-4 leukemia): 2.65 µM
- TGI (MOLT-4 leukemia): 8.57 µM
- GI50 (CCRF-CEM leukemia): 3.6 µM
- TGI (CCRF-CEM leukemia): 13.3 µM
- GI50 (NCI-H522 lung): 3.71 µM
- TGI (NCI-H522 lung): 15.3 µM
- GI50 (MDA-MB-435): 1.88 µM
- TGI (MDA-MB-435): 3.76 µM
- GI50 (TK-10 renal): 3.13 µM
- TGI (TK-10 renal): 11.9 µM
- GI50 (SK-MEL-2 melanoma): 5.39 µM
- TGI (SK-MEL-2 melanoma): 19.7 µM
- GI50 (T-47D breast): 2.43 µM
- TGI (T-47D breast): 6.5 µM
- GI50 (HCC-2998 colon): 3.66 µM
- TGI (HCC-2998 colon): 13.2 µM
- GI50 (ACHN renal): 2.35 µM
- TGI (ACHN renal): 6.23 µM
- GI50 (OVCAR-4 ovarian): 1.84 µM
- TGI (OVCAR-4 ovarian): 3.79 µM
- GI50 (UO-31 renal): 11.2 µM
- TGI (UO-31 renal): 23.6 µM
- GI50 (OVCAR-5 ovarian): 2.43 µM
- TGI (OVCAR-5 ovarian): 8.93 µM
- GI50 (HCT-15 colon): 2.56 µM
- TGI (HCT-15 colon): 7.51 µM
- GI50 (M14 melanoma): 1.8 µM
- TGI (M14 melanoma): 3.38 µM
- GI50 (MDA-MB-468 breast): 2.05 µM
- TGI (MDA-MB-468 breast): 4.41 µM
- GI50 (COLO 205 colon): 2.62 µM
- TGI (COLO 205 colon): 7.93 µM
- GI50 (UACC-62 melanoma): 1.84 µM
- TGI (UACC-62 melanoma): 5.05 µM
- GI50 (UACC-257 melanoma): 2.38 µM
- TGI (UACC-257 melanoma): 6.02 µM
- GI50 (EKVX NSCLC): 3.28 µM
- TGI (EKVX NSCLC): 12.5 µM
- GI50 (RPMI-8226 leukemia): 3.22 µM
- TGI (RPMI-8226 leukemia): 14.9 µM
- GI50 (HL-60(TB) leukemia): 1.72 µM
- TGI (HL-60(TB) leukemia): 5.22 µM
- GI50 (CAKI-1 renal): 1.93 µM
- TGI (CAKI-1 renal): 5.45 µM
- GI50 (DU-145 prostate): 3.54 µM
- TGI (DU-145 prostate): 14.7 µM
- GI50 (U251 CNS): 2.09 µM
- TGI (U251 CNS): 4.24 µM
- GI50 (HOP-92 NSCLC): 1.83 µM
- TGI (HOP-92 NSCLC): 4.07 µM
- GI50 (SK-OV-3 ovarian): 4.32 µM
- TGI (SK-OV-3 ovarian): 15.6 µM
- GI50 (HS 578T breast): 2.02 µM
- TGI (HS 578T breast): 5.15 µM
- GI50 (SNB-19 CNS): 4.3 µM
- TGI (SNB-19 CNS): 16.1 µM
- GI50 (SF-539 CNS): 1.62 µM
- TGI (SF-539 CNS): 3 µM
- GI50 (SK-MEL-28 melanoma): 1.73 µM
- TGI (SK-MEL-28 melanoma): 3.19 µM
- GI50 (OVCAR-8 ovarian): 2.3 µM
- TGI (OVCAR-8 ovarian): 5.89 µM
- GI50 (SN12C renal): 1.8 µM
- TGI (SN12C renal): 4.08 µM
- GI50 (A549 NSCLC): 1.99 µM
- TGI (A549 NSCLC): 4.43 µM
- GI50 (HCT-116 colon): 1.74 µM
- TGI (HCT-116 colon): 3.27 µM
- GI50 (PC-3 prostate): 2.3 µM
- TGI (PC-3 prostate): 6.65 µM
- GI50 (SW-620 colon): 2.11 µM
- TGI (SW-620 colon): 5.1 µM
- GI50 (BT-549 breast): 1.88 µM
- TGI (BT-549 breast): 4.01 µM
- GI50 (LOX IMVI melanoma): 2.27 µM
- TGI (LOX IMVI melanoma): 5.81 µM
- GI50 (IGROV1 ovarian): 6.83 µM
- TGI (IGROV1 ovarian): 19.8 µM
- GI50 (NCI-H23 lung): 2.48 µM
- TGI (NCI-H23 lung): 6.88 µM
- GI50 (MALME-3M melanoma): 1.94 µM
- TGI (MALME-3M melanoma): 3.52 µM
- GI50 (MDA-MB-231 breast): 2.04 µM
- TGI (MDA-MB-231 breast): 4.68 µM
- GI50 (MCF7 breast): 2.01 µM
- TGI (MCF7 breast): 4.96 µM
- GI50 (NCI-H226 lung): 2 µM
- TGI (NCI-H226 lung): 4.31 µM
- GI50 (SF-268 CNS): 2.43 µM
- TGI (SF-268 CNS): 8.3 µM
- GI50 (OVCAR-3 ovarian): 1.87 µM
- TGI (OVCAR-3 ovarian): 4.39 µM
- GI50 (A498 renal): 11.2 µM
- TGI (A498 renal): 24.6 µM
- GI50 (NCI/ADR-RES ovarian): 2.34 µM
- TGI (NCI/ADR-RES ovarian): 5.52 µM
- GI50 (RXF 393 renal): 1.48 µM
- TGI (RXF 393 renal): 3.27 µM
- GI50 (SNB-75 CNS): 1.49 µM
- TGI (SNB-75 CNS): 3.35 µM
